US20040258621A1, “Method of treating snoring and other obstructive breathing disorders” (priority 2002, published 2004)
Where a name gives a salt, the structure may show the parent alone. Read-outs that look alike come from different tables or passages of the source.

Columns and labels:
[1] = especially at room temperature; cited from earlier work
[2] = test system: snoring in a nocturnal breathing obstructed person with GERD; test: Case study of a snoring patient with GERD; assay type: in vivo, human; settings: for beneficial effect on snoring: throughout the subsequent year
Source text: A person, 5 feet 3 inches tall and moderately overweight reported a 15-20 year history of progressively increasing snoring. The intensity of their snoring was well documented by their spouse, who experienced disturbed sleep as a result of their spouse's snoring, occasionally requiring them to waken the patient in order for them to obtain relief. The patient gave no history of naso-pharyngeal structural abnormalities or surgery (other than third molar extraction) and had experienced no breathing disorder.
The patient complained to their physician of a chronic scratchiness in their throat, thought to be a result of gastroesophageal reflux disease (GERD). To treat the GERD symptoms, the patient was placed on Prevacid (Lansoprazole) 15 mg once daily.

[3] = test system: outpatients with significant snoring; test: Open label study on 8 outpatients with significant snoring; assay type: in vivo, human; settings: 30 mg, 35 to 90 days (mean 61 days)
Description: An open label study was performed on 8 outpatients with significant snoring. The patients were treated with Prevacid 30 mg. for 30-90 days. The entry criteria were snoring with or without sleep apnea, documented by history, physical exam, and independent sleep lab studies. […] At baseline patients had all been placed on conservative nasal regimen with no improvement in their symptoms. […] At the end of treatment changes in global and spousal ratings of snoring were made along with investigator observations.
The demographics of the study group were eight males no females; a mean age of 50.6 years with a range of 32-70; a mean weight of 206 lbs with a range of 160-260; and there were 6 white, 1 black, and 1 Asian in the group. At baseline the investigator made the diagnosis of GERD in 4 patients. Spousal ratings of snoring were 3 moderate and 5 severe; 4 had moderate or severe sleep apnea; and all 8 had daytime sleepiness.
The duration of treatment ranged from 35 to 90 days with a mean of 61 days. At conclusion of the study, 7 of 8 patients had moderate or marked improvement in snoring. […] 8 of 8 patients had marked improvement in their sleep with less waking and less daytime fatigue.

[4] = cited from earlier work; for stability in acidic media: acid media
[5] = cited from earlier work
[6] = test system: heartburn symptoms and lesions caused by heartburn; settings: according to the manufacturer AstraZeneca; cited from earlier work
[7] = +37° C., relative humidity 80%, 6 months; cited from earlier work

In the case of `COc1ccc2[nH]c([S+]([O-])Cc3ncc(C)c(OC)c3C)nc2c1` (stereo not drawn) [Omeprazole form A, omeprazole], the “thermodynamic stability versus omeprazole form B” value [1] is given as “thermodynamically more stable”.

In the case of `NC(N)=Nc1nc(CSCCC(N)=NS(N)(=O)=O)cs1` [Pepcid AC (Famotidine), famotidine], the “beneficial effect on snoring” value [2] is reported as “maintained”.

For `Cc1c(OCC(F)(F)F)ccnc1C[S+]([O-])c1nc2ccccc2[nH]1` (stereo not drawn) [Prevacid (Lansoprazole), 2-[[[3-methyl-4-(2,2,2-trifluoroethoxy)-2-pyridyl]methyl]sulfinyl]benzimidazole], the “patients with marked improvement in their sleep with less waking and less daytime fatigue” value [3] was 8 of 8, the “patients with moderate or marked improvement in snoring” value [3] was 7 of 8 and the “intensity of the patient's snoring (spouse's observation)” value ([2]; 15 mg once daily) was “gradual decline”. For the same molecule, the throat scratchiness ([2]; 15 mg once daily, after beginning treatment) was “declined promptly”, the “benefit on snoring sustained for the duration of dosing” value ([2]; 15 mg once daily, approximately 12 months) was “moderate to marked benefit” and the “snoring after dosing was interrupted” value ([2]; dosing interrupted for several weeks) was “resumption of noticeable snoring intensity”.

In the case of `COCCCOc1ccnc(C[S+]([O-])c2nc3ccccc3[nH]2)c1C` (stereo not drawn) [Rabeprazole sodium, 2-[[[4-(3-methoxypropoxy)-3-methyl-2-pyridinyl]-methyl]sulfinyl]-1H-benzimidazole sodium salt], the “stability in acidic media” value [4] is given as “rapidly degraded”, the “stability under alkaline conditions” value [4] is given as “more stable” and the solubility ([5]; chloroform) is given as “freely soluble”. The solubility ([5]; ethanol) was “freely soluble”, the solubility ([5]; ether) was “insoluble” and the solubility ([5]; ethyl acetate) was “freely soluble”. The solubility ([5]; methanol) was “very soluble”, the solubility ([5]; n-hexane) was “insoluble” and the solubility ([5]; water) was “very soluble”.

In the case of `CN/C(=N/CCSCc1nc[nH]c1C)NC#N` [Tagamet (Cimetidine), cimetidine], the “beneficial effect on snoring” value [2] is reported as “maintained”.

In the case of `COc1ccc2c(c1)nc([S@@+]([O-])Cc1ncc(C)c(OC)c1C)[n]2[Mg][n]1c([S@@+]([O-])Cc2ncc(C)c(OC)c2C)nc2cc(OC)ccc21.O.O.O` [esomeprazole magnesium, bis(5-methoxy-2-[(S)-[(4-methoxy-3,5-dimethyl-2-pyridinyl)methyl]sulfinyl]-1H-benzimidazole-1-yl) magnesium trihydrate], the “stability in acidic media” value [4] is listed as “rapidly degrades”, the “stability under alkaline conditions” value [4] is listed as “acceptable stability” and the “rates of healing of certain lesions caused by heartburn versus PRILOSEC” value [6] is listed as “higher rates of healing”. For the same molecule, the “reduction of heartburn symptoms versus PRILOSEC” value [6] was “faster” and the solubility ([5]; water) was “slightly soluble”.

In the case of `COc1ccc2[nH]c([S+]([O-])Cc3ncc(C)c(OC)c3C)nc2c1` (stereo not drawn) [omeprazole, 5-methoxy-2-[[(4-methoxy-3,5-dimethyl-2-pyridinyl)methyl]sulfinyl]-1H-benzimidazole], the “substance converted to degradation products” value [7] is given as “about 6%”.
